Results reported in ChEMBL document CHEMBL6120946, “From Hit to Lead: Discovery of First-In-Class Furanone Glycoside D228 Derived from Chimonanthus salicifolius for the Treatment of Inflammatory Bowel Disease” (J Med Chem, 2024).
Activity calls are given as the source filed them. The calls are words filed in the database; no cut-off is given here.

Columns and labels:
[1] = system: Mus musculus; test: Antiinflammatory activity in DSS-induced male C57BL/6 mouse model of inflammatory bowel disease assessed as downregulation of TRAF6 expression at 50 to 100 microM/Kg by Western blot analysis; format: functional, organism-based; conditions: dose 50-100 µM/Kg
[2] = system: Mus musculus; test: Antiinflammatory activity in DSS-induced male C57BL/6 mouse model of inflammatory bowel disease assessed as inhibition of MPO expression at 50 to 100 microM/Kg, po by immunohistochemical analysis; format: functional, organism-based; conditions: dose 50-100 µM/Kg
[3] = Cytotoxicity against mouse Splenocyte by MTT assay; format: toxicity, cell-based; conditions: splenocytes
[4] = system: Mus musculus; test: Antiinflammatory activity in DSS-induced male C57BL/6 mouse model of inflammatory bowel disease assessed as amelioration of crypts disruption at 50 to 100 microM/Kg by H and E staining based analysis; format: functional, organism-based; conditions: dose 50-100 µM/Kg
[5] = Toxicity in female BALB/c mouse assessed as effect on GLU level at 0.5 g/Kg administered daily and measured after 5 weeks; conditions: in vivo, 500 mg/kg, 840 h
[6] = system: Mus musculus; test: Antiinflammatory activity in DSS-induced male C57BL/6 mouse model of inflammatory bowel disease assessed as amelioration of structural loss of colon at 50 to 100 microM/Kg by H and E staining based analysis; format: functional, organism-based; conditions: dose 50-100 µM/Kg
[7] = Toxicity in male C57BL/6 mouse assessed as effect on GLU level at 0.5 g/Kg administered daily and measured after 5 weeks; conditions: in vivo, 500 mg/kg, 840 h
[8] = system: Mus musculus; test: Antiinflammatory activity in DSS-induced male C57BL/6 mouse model of inflammatory bowel disease assessed as upregulation of ZO-1 expression in colon at 50 to 100 microM/Kg by immunohistochemical analysis; format: functional, organism-based; conditions: dose 50-100 µM/Kg
[9] = system: Mus musculus; test: Antiinflammatory activity in DSS-induced male C57BL/6 mouse model assessed as inhibition of IL-6 level in colon at 50 to 100 microM/Kg; format: functional, organism-based; conditions: dose 50-100 µM/Kg
[10] = system: Mus musculus; test: Antiinflammatory activity in DSS-induced male C57BL/6 mouse model of inflammatory bowel disease assessed as amelioration of infiltration of inflammatory cells at 50 to 100 microM/Kg by H and E staining based analysis; format: functional, organism-based; conditions: dose 50-100 µM/Kg
[11] = system: Mus musculus; test: Antiinflammatory activity in DSS-induced male C57BL/6 mouse model assessed as increase in IL-10 level in colon at 50 to 100 microM/Kg; format: functional, organism-based; conditions: dose 50-100 µM/Kg
[12] = Toxicity in female BALB/c mouse assessed as effect on CREA level at 0.5 g/Kg administered daily and measured after 5 weeks; conditions: in vivo, 500 mg/kg, 840 h
[13] = system: Mus musculus; test: Antiinflammatory activity in DSS-induced male C57BL/6 mouse model of inflammatory bowel disease assessed as downregulation of MyD88 expression at 50 to 100 microM/Kg by Western blot analysis; format: functional, organism-based; conditions: dose 50-100 µM/Kg
[14] = Toxicity in male C57BL/6 mouse assessed as effect on ALP level at 0.5 g/Kg administered daily and measured after 5 weeks; conditions: in vivo, 500 mg/kg, 840 h
[15] = Toxicity in male C57BL/6 mouse assessed as effect on CREA level at 0.5 g/Kg administered daily and measured after 5 weeks; conditions: in vivo, 500 mg/kg, 840 h
[16] = system: B-cell line; test: Immunosuppressive activity in mouse B-lymphocyte assessed as reduction in LPS-induced cell proliferation incubated for 48 hrs; format: functional, cell-based
[17] = Immunosuppressive activity in mouse T-lymphocyte assessed as reduction in concanavalin A-induced cell proliferation incubated for 48 hrs; format: functional, cell-based
[18] = system: Mus musculus; test: Antiinflammatory activity in DSS-induced male C57BL/6 mouse model assessed as inhibition of IL-22 level in colon at 50 to 100 microM/Kg; format: functional, organism-based; conditions: dose 50-100 µM/Kg
[19] = Toxicity in female BALB/c mouse assessed as effect on Cl inorganic salt index at 0.5 g/Kg administered daily and measured after 5 weeks; conditions: in vivo, 500 mg/kg, 840 h
[20] = system: Mus musculus; test: Antiinflammatory activity in DSS-induced male C57BL/6 mouse model assessed as inhibition of TNF-alpha level in colon at 50 to 100 microM/Kg; format: functional, organism-based; conditions: dose 50-100 µM/Kg
[21] = system: Mus musculus; test: Antiinflammatory activity in DSS-induced male C57BL/6 mouse model assessed as effect on JNK phosphorylation level at 50 to 100 microM/Kg by Western blot analysis; format: functional, organism-based; conditions: dose 50-100 µM/Kg
[22] = Toxicity in male C57BL/6 mouse assessed as effect on CK level at 0.5 g/Kg administered daily and measured after 5 weeks; conditions: in vivo, 500 mg/kg, 840 h
[23] = system: Mus musculus; test: Antiinflammatory activity in DSS-induced male C57BL/6 mouse model of inflammatory bowel disease assessed as decrease in p38 phosphorylation level at 50 to 100 microM/Kg by Western blot analysis; format: functional, organism-based; conditions: dose 50-100 µM/Kg
[24] = Toxicity in male C57BL/6 mouse assessed as effect on Na inorganic salt index at 0.5 g/Kg administered daily and measured after 5 weeks; conditions: in vivo, 500 mg/kg, 840 h
[25] = Selectivity ratio of CC50 for cytotoxicity against mouse Splenocyte to IC50 for immunosuppressive activity in mouse T-lymphocyte; format: toxicity; conditions: splenocytes (CC50) and T-lymphocytes (IC50)
[26] = Selectivity ratio of CC50 for cytotoxicity against mouse Splenocyte to IC50 for immunosuppressive activity in mouse B-lymphocyte; format: toxicity; conditions: splenocytes (CC50) and B-lymphocytes (IC50)
[27] = Toxicity in female BALB/c mouse assessed as effect on ALP level at 0.5 g/Kg administered daily and measured after 5 weeks; conditions: in vivo, 500 mg/kg, 840 h
[28] = system: Mus musculus; test: Antiinflammatory activity in DSS-induced male C57BL/6 mouse model assessed as inhibition of IL-17A level in colon at 50 to 100 microM/Kg; format: functional, organism-based; conditions: dose 50-100 µM/Kg
[29] = Toxicity in male C57BL/6 mouse assessed as effect on Cl inorganic salt index at 0.5 g/Kg administered daily and measured after 5 weeks; conditions: in vivo, 500 mg/kg, 840 h
[30] = Toxicity in female BALB/c mouse assessed as effect on Na inorganic salt index at 0.5 g/Kg administered daily and measured after 5 weeks; conditions: in vivo, 500 mg/kg, 840 h
[31] = Toxicity in female BALB/c mouse assessed as effect on CK level at 0.5 g/Kg administered daily and measured after 5 weeks; conditions: in vivo, 500 mg/kg, 840 h
[32] = system: Mus musculus; test: Antiinflammatory activity in DSS-induced male C57BL/6 mouse model of inflammatory bowel disease assessed as restoration of colon length at 40 mg/kg/day, po via gavage measured after 14 days relative to control; format: functional; conditions: time 14 day
[33] = system: Mus musculus; test: Antiinflammatory activity in male C57BL/6 mouse model of inflammatory bowel disease assessed as recovery of DSS-induced body weight loss at 40 mg/kg/day, po via gavage measured after 14 days relative to control; format: functional; conditions: time 14 day
[34] = system: Mus musculus; test: Antiinflammatory activity in DSS-induced male C57BL/6 mouse model of inflammatory bowel disease assessed as recovery from body weight loss at 40 mg/kg/day, po measured after 7 days relative to control; format: functional; conditions: time 7 day
[35] = system: Mus musculus; test: Antiinflammatory activity in DSS-induced male C57BL/6 mouse model of inflammatory bowel disease assessed as recovery from body weight loss at 40 mg/kg/day, po measured after 7 days; format: functional, organism-based; conditions: time 7.0 day
[36] = system: Mus musculus; test: Antiinflammatory activity in DSS-induced male C57BL/6 mouse model of inflammatory bowel disease assessed as recovery in colon length at 40 mg/kg/day, po measured after 7 days relative to control; format: functional; conditions: time 7 day

**Q.** With `CC(C)=C1OC(C)=C(O)C1=O` as the compound, how does the Activity [1] read?
**A.** Its Activity is “Active”.

**Q.** What about the Activity [2] of the same compound?
**A.** Its Activity is “Active”.

**Q.** And the CC50 [3]?
**A.** The CC50 was 110 µM.

**Q.** What about the Activity [4] of the same compound?
**A.** The Activity was “Active”.

**Q.** What about the Activity [5] of the same compound?
**A.** Its Activity is “Non-toxic”.

**Q.** And the Activity [6]?
**A.** Its Activity is “Active”.

**Q.** What about the Activity [7] of the same compound?
**A.** Its Activity is “Non-toxic”.

**Q.** What about the Activity [8] of the same compound?
**A.** The Activity was “Active”.

**Q.** And the Activity [9]?
**A.** Its Activity is “Active”.

**Q.** What about the Activity [10] of the same compound?
**A.** The Activity was “Active”.

**Q.** And the Activity [11]?
**A.** Its Activity is “Active”.

**Q.** And the Activity [12]?
**A.** The Activity was “Non-toxic”.

**Q.** And the Activity [13]?
**A.** Its Activity is “Active”.

**Q.** And the Activity [14]?
**A.** The Activity was “Non-toxic”.

**Q.** And the Activity [15]?
**A.** The Activity was “Non-toxic”.

**Q.** And the IC50 [16]?
**A.** Its IC50 is 23.1 µM.

**Q.** What about the IC50 [17] of the same compound?
**A.** Its IC50 is 62.1 µM.

**Q.** And the Activity [18]?
**A.** Its Activity is “Active”.

**Q.** And the Activity [19]?
**A.** The Activity was “Non-toxic”.

**Q.** And the Activity [20]?
**A.** Its Activity is “Active”.

**Q.** And the Activity [21]?
**A.** The Activity was “inactive”.

**Q.** And the Activity [22]?
**A.** Its Activity is “Non-toxic”.

**Q.** And the Activity [23]?
**A.** Its Activity is “Active”.

**Q.** And the Activity [24]?
**A.** The Activity was “Non-toxic”.

**Q.** What about the selectivity ratio [25] of the same compound?
**A.** Its selectivity ratio is 1.82.

**Q.** What about the selectivity ratio [26] of the same compound?
**A.** The selectivity ratio was 4.77.

**Q.** And the Activity [27]?
**A.** Its Activity is “Non-toxic”.

**Q.** What about the Activity [28] of the same compound?
**A.** The Activity was “Active”.

**Q.** What about the Activity [29] of the same compound?
**A.** The Activity was “Non-toxic”.

**Q.** And the Activity [30]?
**A.** The Activity was “Non-toxic”.

**Q.** What about the Activity [31] of the same compound?
**A.** Its Activity is “Non-toxic”.

**Q.** With `CC(=O)OC[C@H]1O[C@@H](OC2=C(C)OC(=C(C)C)C2=O)[C@H](OC(C)=O)[C@@H](OC(C)=O)[C@H]1OC(C)=O` as the compound, how does the Activity [32] read?
**A.** Its Activity is 25.4%.

**Q.** And the CC50 [3]?
**A.** The CC50 was 183 µM.

**Q.** And the IC50 [16]?
**A.** The IC50 was > 100 µM.

**Q.** And the IC50 [17]?
**A.** The IC50 was 201 µM.

**Q.** And the selectivity ratio [25]?
**A.** The selectivity ratio was 1.06.

**Q.** What about the Activity [33] of the same compound?
**A.** The Activity was 44.8%.

**Q.** Which CC50 [3] does the source give for `CC(=O)OC[C@H]1O[C@@H](OC2=C(C)OC(=C3CCCC3)C2=O)[C@H](OC(C)=O)[C@@H](OC(C)=O)[C@@H]1OC(C)=O` here?
**A.** Its CC50 is 40 µM.

**Q.** And the IC50 [16]?
**A.** Its IC50 is 16.3 µM.

**Q.** What about the IC50 [17] of the same compound?
**A.** The IC50 was 23.4 µM.

**Q.** What about the Activity [34] of the same compound?
**A.** Its Activity is 62.5%.

**Q.** And the selectivity ratio [25]?
**A.** Its selectivity ratio is 1.83.

**Q.** And the selectivity ratio [26]?
**A.** The selectivity ratio was 2.73.

**Q.** And the Activity [35]?
**A.** The Activity was “Active”.

**Q.** What about the Activity [36] of the same compound?
**A.** The Activity was 45.2%.

**Q.** For `CC1=C(O)C(=O)C(=C2CCOCC2)O1`, which CC50 [3] is on record?
**A.** Its CC50 is 232 µM.

**Q.** And the IC50 [16]?
**A.** The IC50 was > 100 µM.

**Q.** What about the IC50 [17] of the same compound?
**A.** Its IC50 is > 100 µM.
